Reference: US20030220252A1, “Method for treating a patient with neoplasia by treatment with a gonadotropin releasing hormone analog” (priority 1998, published 2003)

Assays:
cGMP-PDE = cGMP-PDE inhibition assay, enzyme purified from HT-29 tumor cells; format: biochemical, human; details: for % Inhibition at 100 μM (cGMP PDE): test compounds
[1] = test system: HT-29 human colon carcinoma cell line; assay: Growth inhibition of HT-29 cells (SRB assay; trypan blue count); format: cell-based
COX = COX inhibition; format: biochemical; details: 100 μM
[2] = test system: PDE peak B (novel cGMP-specific PDE); assay: cGMP hydrolysis by PDE peak B isolated from SW-480 cells; format: biochemical, human
PDE peak A (PDE5) = target: T1, PDE peak A (PDE5) (Homo sapiens, UniProt O76074); assay: cGMP hydrolysis by PDE peak A isolated from SW-480 cells; format: biochemical
T1 construct: SW-480 cells are collected and homogenized; endogenous in cells; host or cells: SW-480 human colon adenocarcinoma cells; supernatant of homogenate fractionated on DEAE-Trisacryl M

HT-29 cells = assay: Apoptosis and necrosis by morphology (acridine orange/ethidium bromide) in HT-29 cells; format: cell-based, human; details: for apoptotic and necrotic cell death, in words: HT-29 cells treated for six days
Protocol: Treatment of cells with test compounds involves either pre- or post-confluent cultures and treatment for two to seven days at various concentrations of the compound in question. Apoptotic cells are measured by combining both the attached and “floating” compartments of the cultures. The protocol for treating tumor cell cultures with sulindac and related compounds to obtain a significant amount of apoptosis has been described in the literature. (See, Piazza, G. A., et al., Cancer Research, 55:3110-16, 1995, which is incorporated herein by reference). The novel features include collecting both floating and attached cells, identification of the optimal treatment times and dose range for observing apoptosis, and identification of optimal cell culture conditions.
Following treatment with a test compound, cultures can be assayed for apoptosis and necrosis by fluorescent microscopy following labeling with acridine orange and ethidium bromide. The method for measuring apoptotic cell number has previously been described by Duke & Cohen, “Morphological And Biochemical Assays Of Apoptosis,” Current Protocols In Immunology, Coligan et al., eds., 3.17.1-3.17.16 (1992, which is incorporated herein by reference).
For example, floating and attached cells can be collected, and aliquots of cells can be centrifuged. The cell pellet can then be resuspended in media and a dye mixture containing acridine orange and ethidium bromide. The mixture can then be examined microscopically for morphological features of apoptosis.
Reference compounds and test compounds were analyzed for their cGMP-specific PDE inhibitory activity in accordance with the protocols for the assay, supra. […] Apoptotic and necrotic cell death was determined as previously described (Duke and Cohen, In: Current Protocols in Immunology, 3.17.1-3.17.16, New York, John Wiley and Sons, 1992). […]
The apoptosis inducing activity for a series of phosphodiesterase inhibitors was determined. […] Apoptosis and necrosis were determined morphologically after acridine orange and ethidium bromide labeling in accordance with the assay described, supra.

[3] = test system: premalignant lesions in mouse mammary gland organ culture; assay: Mammary gland organ culture model; format: cell-based
Protocol: For example, female BALB/c mice can be treated with a combination of estradiol and progesterone daily, in order to prime the glands to be responsive to hormones in vitro. The animals are sacrificed and thoracic mammary glands are excised aseptically and incubated for ten days in growth media supplemented with insulin, prolactin, hydrocortisone, and aldosterone. DMBA (7,12-dimethylbenz(a)anthracene) is added to medium to induce the formation of premalignant lesions. Fully developed glands are then deprived of prolactin, hydrocortisone, and aldosterone, resulting in the regression of the glands but not the premalignant lesions.
The test compound is dissolved in DMSO and added to the culture media for the duration of the culture period. At the end of the culture period, the glands are fixed in 10% formalin, stained with alum carmine, and mounted on glass slides. The extent of the area occupied by the mammary lesions can be quantitated by projecting an image of the gland onto a digitation pad. The area covered by the gland is traced on the pad and considered as 100% of the area. The space covered by each of the unregressed structures is also outlined on the digitization pad and quantitated by the computer.
The incidence of forming mammary lesions is the ratio of the glands with mammary lesions to […]. The incidence of mammary lesions in test compound treated glands is compared with that of the untreated glands.
Mammary gland organ culture experiments were performed as previously described (Mehta and Moon, Cancer Research, 46: 5832-5835, 1986). […] The data support the hypothesis that cyclooxygenase inhibition is not necessary for the anti-neoplastic properties of desired compounds.

[4] = Side effects of exisulind on administration; format: in vivo; details: reversible
Text: This effect is reversible, and liver enzymes return to normal levels when the administered dose of exisulind returns to the traditionally recommended level or when treatment is discontinued. The most serious side effects of GnRH analogs, on the other hand, are related to decreases serum levels of estrogen and testosterone.

[5] = test system: cAMP levels in HT-29 cells; assay: cAMP levels in HT-29 cells by radioimmunoassay; format: cell-based, human; details: HT-29 cells treated 30 minutes
Text: It has been observed that a compound which is useful in the practice of this invention (i.e., one that selectively induces apoptosis in neoplastic cells, but not substantially in normal cells) follows a time course consistent with cGMP-specific PDE inhibition. […] The intracellular targets of these drug actions are being studied further, but current data support the concept that the initial rise in cGMP content and the subsequent fall in cAMP content precede apoptosis in neoplastic cells exposed to test compounds useful in this invention. To determine the cyclic AMP content in cell extracts, radioimmunoassay techniques similar to those described above for cGMP are used.

[6] = test system: cGMP levels in HT-29 cells; assay: cGMP levels in HT-29 cells by radioimmunoassay; format: cell-based, human; details: HT-29 cells treated 30 minutes

For `CCN(CC)CCSC12CC(=O)OC1(C)/C(=C/c1ccc(S(C)(=O)=O)cc1)c1ccc(F)cc12` (racemic) [A, rac-threo-(E)-1-(N,N′-diethylaminoethanethio)-1-(butan-1′,4′-olido)-[3′,4′:1,2]-6-fluoro-2-methyl-3-(p-methylsulfonylbenzylidene)-indan], the “% Inhibition at 100 μM (cGMP PDE)” value (cGMP-PDE) was less than 25% and the “Growth inhibitory activity, % Inhibition at 100 μM” value ([1]; 100 μM single dose) was 68%.
For `CC1=C(CC(=O)O)c2cc(F)ccc2/C1=C\c1ccc(Cl)cc1` [C, (Z)-5-Fluoro-2-methyl-1-(p-chlorobenzylidene)-3-acetic acid], the “% Inhibition at 100 μM (cGMP PDE)” value (cGMP-PDE) was less than 25%.
For `COc1cc(C=C2C(C)=C(CC(=O)O)c3cc(F)ccc32)cc(OC)c1OC` [Compound B, (Z)-5-Fluoro-2-methyl-1-(3,4,5-trimethoxybenzylidene)-3-acetic acid], the “% Inhibition at 100 μM (cGMP PDE)” value (cGMP-PDE) was less than 25% and the “COX inhibition, in words” value (COX) was “did not inhibit COX”.
With `O=C([O-])C1CCN(c2nc(NCc3ccc4c(c3)OCO4)c3cc(Cl)ccc3n2)CC1.[Na+]` [Compound E4021] the “inhibition / sensitivity of the new cGMP-PDE (peak B), in words” value (from here on “inhibition / sensitivity”) [2] was “relatively insensitive”.
With `COc1cc(/C=C2/C(C)=C(CC(=O)NCc3ccccc3)c3cc(F)ccc32)cc(OC)c1OC` [Compound E, (Z)-5-Fluoro-2-methyl-1-(3,4,5-trimethoxybenzylidene)-3-indenylacetamide, N-benzyl] the “inhibition of peak A (PDE5), in words” value (PDE peak A (PDE5)) was “competitively inhibit”, the “inhibition / sensitivity” value [2] was “competitively inhibit” and the “% Inhibition at 100 μM (cGMP PDE)” value (cGMP-PDE) was 75%. The “COX inhibition, in words” value (COX) was “did not inhibit COX”.
For `CC1=C(CC(=O)O)c2cc(F)ccc2/C1=C\c1ccc(S(C)(=O)=O)cc1` [Exisulind, (Z)-5-fluoro-2-methyl-1-[[4-(methylsulfonyl)phenyl]methylene]indene-3-yl acetic acid], the “inhibition of peak A (PDE5), in words” value (PDE peak A (PDE5)) was “inhibits both PDE5 and the new cGMP-PDE”, the “inhibition / sensitivity” value [2] was “inhibits both PDE5 and the new cGMP-PDE” and the “% Inhibition at 10 μM (cGMP PDE)” value (cGMP-PDE) was 39%. For the same molecule, the “apoptotic and necrotic cell death, in words” value (HT-29 cells) was “capable of causing apoptotic cell death without inducing necrosis”, the “inhibition of premalignant lesions in mammary gland organ culture, in words” value (shortened to “inhibition of premalignant lesions”) [3] was “effectively inhibit the formation of premalignant lesions” and the “effect at doses higher than the recommended therapeutic levels” value [4] was “elevated levels of liver enzymes”.
For `CC1(C)C(=O)Nc2ccc(C3=NNC(=O)CC3)cc21` [Indolidan], the “inhibition / sensitivity” value [2] was “relatively insensitive”.
For `COc1ccc(C2CNC(=O)C2)cc1OC1CCCC1` (stereo not drawn) [Rolipram], the “inhibition / sensitivity” value [2] was “relatively insensitive” and the “effect on levels of cAMP, in words” value [5] was “increased cAMP levels”.
In the case of `CCCc1nn(C)c2c(=O)[nH]c(-c3cc(S(=O)(=O)N4CCN(C)CC4)ccc3OCC)nc12` [Sildenafil], the “inhibition of peak A (PDE5), in words” value (PDE peak A (PDE5)) is reported as “inhibited activity of peak A” and the “inhibition / sensitivity” value [2] is reported as “relatively insensitive”.
For `CSc1ccc(/C=C2/C(C)=C(CC(=O)O)c3cc(F)ccc32)cc1` [Sulindac sulfide], the “inhibition of peak A (PDE5), in words” value (PDE peak A (PDE5)) was “competitively inhibit”, the “inhibition / sensitivity” value [2] was “competitively inhibit” and the “% Inhibition at 10 μM (cGMP PDE)” value (cGMP-PDE) was 97%. The “increase of the levels of cGMP” value [6] was “greater than 50%”, the “effect on levels of cAMP, in words” value [5] was “unaffected” and the “growth inhibition by counting viable cells after trypan blue staining, in words” value ([1]; 120 μM, time course) was “capable of inhibiting tumor cell growth”. The “apoptosis by morphological determination, in words” value (HT-29 cells; 120 μM, time course) was “increase in apoptosis”, the “apoptotic and necrotic cell death, in words” value (HT-29 cells) was “capable of causing apoptotic cell death without inducing necrosis” and the “inhibition of premalignant lesions” value [3] was “inactive”.
In the case of `CCOC(=O)C1=C[C@]2(CC)CCCN3CCc4c(n1c1ccccc41)[C@@H]32` [Vinpocetine], the “inhibition / sensitivity” value [2] is reported as “relatively insensitive”.
With `CCCOc1ccccc1-c1nc2nn[nH]c2c(=O)[nH]1` [Zaprinast] the “inhibition / sensitivity” value [2] was “relatively insensitive”.
For `CC1=C(CC(=O)O)c2cc(F)ccc2/C1=C/c1ccc([S+](C)[O-])cc1` (stereo not drawn) [sulindac sulfoxide], the “inhibition of premalignant lesions” value [3] was “effectively inhibit the formation of premalignant lesions”.
